For assay [1], the target named is T1, Dimer of Gag-Pol polyprotein [489-587] (Human immunodeficiency virus 1, UniProt P12497).
T1 construct: 489-587
In words: Protease Inhibition Assay. The protocol: (§1) Sensitivity of HIV-1 protease activity to protease inhibitors was determined by a peptide substrate cleavage assay. Protease products were analyzed on a reverse-phase high-pressure liquid chromatograph.

Assay [2] deals with T2, Gag-Pol polyprotein [489-587] (Human immunodeficiency virus 1, UniProt P04585).
T2 construct: 489-587
In words: Protease Inhibition Assay. The procedure: as §1

As usually defined, the IC50 is the concentration needed to halve the response being measured. Read a low IC50 as greater potency in that assay.

`Cc1cc(SC2C(=O)CC(CCc3ccccc3)(C(C)C)OC2=O)c(C(C)(C)C)cc1NS(=O)(=O)c1cccnc1` (stereo unspecified): the IC50 in assay [1] and in assay [2] was 3.5 nM throughout.

Turning to `Cc1cc(SC2C(=O)CC(C)(CCc3ccc(O)cc3)OC2=O)c(C(C)(C)C)cc1OS(=O)(=O)c1ccccc1` (stereo unspecified), the IC50 in assay [1] and in assay [2] was 9.8 nM throughout.

On to `Cc1cc(SC2C(=O)CC(CCc3ccc(O)cc3)(C(C)C)OC2=O)c(C(C)(C)C)cc1NS(=O)(=O)c1cccs1` (stereo unspecified) [N-[5-tert-butyl-4-({4-hydroxy-6-[2-(4-hydroxyphenyl)ethyl]-2-oxo-6-(propan-2-yl)-5,6-dihydro-2H-pyran-3-yl}sulfanyl)-2-methylphenyl]thiophene-2-sulfonamide], for which the IC50 in assay [1] (pH 6.2, 37 °C) stood at 8.7 nM; in assay [2], 8.7 nM.

As to `Cc1cc(SC2C(=O)CC(CCc3ccc(O)cc3)(C(C)C)OC2=O)c(C(C)(C)C)cc1OS(=O)(=O)c1cccs1` (stereo unspecified) [5-tert-butyl-4-({4-hydroxy-6-[2-(4-hydroxyphenyl)ethyl]-2-oxo-6-(propan-2-yl)-5,6-dihydro-2H-pyran-3-yl}sulfanyl)-2-methylphenyl thiophene-2-sulfonate], the IC50 in assay [1] and in assay [2] was 21.8 nM throughout.

As to `Cc1cc(SC2C(=O)CC(CCc3ccc(O)cc3)(C3CCCCC3)OC2=O)c(C(C)(C)C)cc1OS(=O)(=O)c1ccc(F)cc1` (stereo unspecified), the half-maximal inhibitory concentration (IC50) in assay [1] and in assay [2] was 29 nM throughout.

For the compound `Cc1cc(SC2C(=O)CC(CCc3ccc(O)cc3)(C(C)C)OC2=O)c(C(C)(C)C)cc1NS(C)(=O)=O` (stereo unspecified), the IC50 is 4 nM in assay [1] (pH 6.2, 37 °C) and 4 nM in assay [2].

Consider `Cc1cc(SC2C(=O)CC(CCc3ccc(O)cc3)(C(C)C)OC2=O)c(C(C)(C)C)cc1OS(=O)(=O)c1cccnc1` (stereo unspecified), for which the IC50 in assay [1] and in assay [2] was 3.5 nM in each case.

Regarding `Cc1cc(SC2C(=O)CC(CCc3ccc(O)cc3)(C(C)C)OC2=O)c(C(C)(C)C)cc1NS(=O)(=O)N(C)C` (stereo unspecified) [3-({2-tert-butyl-4-[(dimethylsulfamoyl)amino]-5-methylphenyl}sulfanyl)-4-hydroxy-6-[2-(4-hydroxyphenyl)ethyl]-6-(propan-2-yl)-5,6-dihydro-2H-pyran-2-one], the half-maximal inhibitory concentration (IC50) in assay [1] and in assay [2] was 3.6 nM each time.

Consider `Cc1cc(SC2C(=O)CC(CCc3ccc(O)cc3)(C(C)C)OC2=O)c(C(C)(C)C)cc1NS(=O)(=O)c1ccc(Cl)cc1` (stereo unspecified), for which the IC50 was 5.3 nM in assay [1] (pH 6.2, 37 °C) and 5.3 nM in assay [2].

In the case of `Cc1cc(SC2C(=O)CC(C)(CCc3ccc(O)cc3)OC2=O)c(C(C)(C)C)cc1NS(C)(=O)=O` (stereo unspecified), the half-maximal inhibitory concentration (IC50) in assay [1] (pH 6.2, 37 °C) came to 9.7 nM; in assay [2], 9.7 nM.

In the case of `Cc1cc(SC2C(=O)CC(CCc3ccc(O)cc3)(C(C)C)OC2=O)c(C(C)(C)C)cc1OS(=O)(=O)Cn1ccnc1` (stereo unspecified), the half-maximal inhibitory concentration (IC50) in assay [2] worked out at 2.4 nM.

For the compound `Cc1cc(SC2C(=O)CC(CCc3ccc(O)cc3)(C(C)C)OC2=O)c(C(C)(C)C)cc1OS(=O)(=O)N(C)C` (stereo unspecified) [6-Alkyl-5,6-Dihydropyran-2-one 22], in assay [2], the midpoint of inhibition, the IC50, lay at 3.4 nM.

Regarding `Cc1cc(SC2C(=O)CC(C)(CCc3ccc(O)cc3)OC2=O)c(C(C)(C)C)cc1NS(=O)(=O)c1ccc(F)cc1` (stereo unspecified) [N-[5-tert-butyl-4-({4-hydroxy-6-[2-(4-hydroxyphenyl)ethyl]-6-methyl-2-oxo-5,6-dihydro-2H-pyran-3-yl}sulfanyl)-2-methylphenyl]-4-fluorobenzene-1-sulfonamide], the IC50 came to 3.7 nM in assay [1] (pH 6.2, 37 °C) and 3.7 nM in assay [2].

For `CCNS(=O)(=O)Nc1cc(C(C)(C)C)c(SC2C(=O)CC(CCc3ccc(O)cc3)(C(C)C)OC2=O)cc1C` (stereo unspecified), the IC50 in assay [1] and in assay [2] was 1.7 nM in each case.

As to `Cc1cc(SC2C(=O)CC(CCc3ccc(O)cc3)(C(C)C)OC2=O)c(C(C)(C)C)cc1NS(=O)(=O)c1cccnc1` (stereo unspecified), the IC50 came out at 2.6 nM in assay [1] (pH 6.2, 37 °C) and 2.6 nM in assay [2].

For `Cc1cc(SC2C(=O)CC(C)(CCc3ccc(O)cc3)OC2=O)c(C(C)(C)C)cc1NS(=O)(=O)c1ccc(C#N)cc1` (stereo unspecified), the half-inhibitory concentration (IC50) in assay [1] (pH 6.2, 37 °C) was 2.1 nM; in assay [2], 2.1 nM.

In the case of `Cc1cc(SC2C(=O)CC(C)(CCc3ccc(O)cc3)OC2=O)c(C(C)(C)C)cc1NS(=O)(=O)c1ccc(Cl)cc1` (stereo unspecified) [N-[5-tert-butyl-4-({4-hydroxy-6-[2-(4-hydroxyphenyl)ethyl]-6-methyl-2-oxo-5,6-dihydro-2H-pyran-3-yl}sulfanyl)-2-methylphenyl]-4-chlorobenzene-1-sulfonamide], the IC50 turned out to be 3.5 nM in assay [1] (pH 6.2, 37 °C) and 3.5 nM in assay [2].

For the compound `Cc1cc(SC2C(=O)CC(C)(CCc3ccc(O)cc3)OC2=O)c(C(C)(C)C)cc1NS(=O)(=O)Cn1ccnc1` (stereo unspecified), in assay [2], the IC50 stood at 1.9 nM. This lies in the single-digit nanomolar range.

Consider `Cc1cc(SC2C(=O)CC(CCc3ccccc3)(C(C)C)OC2=O)c(C(C)(C)C)cc1OS(=O)(=O)c1cccnc1` (stereo unspecified), for which the IC50 in assay [1] and in assay [2] was 14 nM each time.

`Cc1cc(SC2C(=O)CC(CCc3ccc(N)cc3)(C(C)C)OC2=O)c(C(C)(C)C)cc1OS(=O)(=O)Cn1ccnc1` (stereo unspecified) registered an IC50 in assay [2] of 2.2 nM.

`Cc1cc(SC2C(=O)CC(CCc3ccc(O)cc3)(C(C)C)OC2=O)c(C(C)(C)C)cc1OS(=O)(=O)c1ccc(C#N)cc1` (stereo unspecified) [5-tert-butyl-4-({4-hydroxy-6-[2-(4-hydroxyphenyl)ethyl]-2-oxo-6-(propan-2-yl)-5,6-dihydro-2H-pyran-3-yl}sulfanyl)-2-methylphenyl 4-cyanobenzene-1-sulfonate]: the IC50 in assay [1] and in assay [2] was 4.5 nM each time.

For `Cc1cc(SC2C(=O)CC(CCc3ccc(N)cc3)(C(C)C)OC2=O)c(C(C)(C)C)cc1OS(=O)(=O)c1ccc(C#N)cc1` (stereo unspecified), the half-maximal inhibitory concentration (IC50) in assay [1] and in assay [2] was 1.3 nM in each case.

In assay [2], `Cc1cc(SC2C(=O)CC(C)(CCc3ccc(O)cc3)OC2=O)c(C(C)(C)C)cc1OS(=O)(=O)Cn1ccnc1` (stereo unspecified) registered a half-inhibitory concentration (IC50) of 2 nM. This lies in the single-digit nanomolar range.

`Cc1cc(SC2C(=O)CC(CCc3ccccc3)(C(C)C)OC2=O)c(C(C)(C)C)cc1OS(=O)(=O)c1ccccn1` (stereo unspecified) [5-tert-butyl-4-{[4-hydroxy-2-oxo-6-(2-phenylethyl)-6-(propan-2-yl)-5,6-dihydro-2H-pyran-3-yl]sulfanyl}-2-methylphenyl pyridine-2-sulfonate]: the IC50 in assay [1] and in assay [2] was 6.7 nM throughout.

Consider `Cc1cc(SC2C(=O)CC(CCc3ccc(O)cc3)(C(C)C)OC2=O)c(C(C)(C)C)cc1NS(=O)(=O)c1ccc(C(F)(F)F)cc1` (stereo unspecified) [N-[5-tert-butyl-4-({4-hydroxy-6-[2-(4-hydroxyphenyl)ethyl]-2-oxo-6-(propan-2-yl)-5,6-dihydro-2H-pyran-3-yl}sulfanyl)-2-methylphenyl]-4-(trifluoromethyl)benzene-1-sulfonamide], for which the half-inhibitory concentration (IC50) in assay [1] (pH 6.2, 37 °C) is 18.3 nM; in assay [2], 18.3 nM.

With `Cc1cc(SC2C(=O)CC(CCc3ccc(O)cc3)(C(C)C)OC2=O)c(C(C)(C)C)cc1NS(=O)(=O)c1ccc(F)cc1` (stereo unspecified) [N-[5-tert-butyl-4-({4-hydroxy-6-[2-(4-hydroxyphenyl)ethyl]-2-oxo-6-(propan-2-yl)-5,6-dihydro-2H-pyran-3-yl}sulfanyl)-2-methylphenyl]-4-fluorobenzene-1-sulfonamide], the IC50 in assay [1] (pH 6.2, 37 °C) is 4.1 nM; in assay [2], 4.1 nM.

With `Cc1cc(SC2C(=O)CC(CCc3ccccc3)(C(C)C)OC2=O)c(C(C)(C)C)cc1NS(=O)(=O)c1cccs1` (stereo unspecified), the concentration for half-maximal inhibition (IC50) was 3.6 nM in assay [1] (pH 6.2, 37 °C) and 3.6 nM in assay [2].

`CCNS(=O)(=O)Oc1cc(C(C)(C)C)c(SC2C(=O)CC(CCc3ccc(N)cc3)(C(C)C)OC2=O)cc1C` (stereo unspecified) [4-({6-[2-(4-aminophenyl)ethyl]-4-hydroxy-2-oxo-6-(propan-2-yl)-5,6-dihydro-2H-pyran-3-yl}sulfanyl)-5-tert-butyl-2-methylphenyl N-ethylsulfamate] had a concentration for half-maximal inhibition (IC50) in assay [2] of 4.3 nM.

As for `Cc1cc(SC2C(=O)CC(CCc3ccc(O)cc3)(C3CCCCC3)OC2=O)c(C(C)(C)C)cc1OS(=O)(=O)c1ccc(C#N)cc1` (stereo unspecified), the IC50 in assay [1] and in assay [2] was 21 nM each time.

`CCNS(=O)(=O)Oc1cc(C(C)(C)C)c(SC2C(=O)CC(CCc3ccccc3)(C(C)C)OC2=O)cc1C` (stereo unspecified) had a half-inhibitory concentration (IC50) in assay [2] of 8.9 nM.

Regarding `Cc1cc(SC2C(=O)CC(C)(CCc3ccc(O)cc3)OC2=O)c(C(C)(C)C)cc1OS(=O)(=O)c1ccc(F)cc1` (stereo unspecified), the half-inhibitory concentration (IC50) in assay [1] and in assay [2] was 16.9 nM in each case.

`Cc1cc(SC2C(=O)CC(CCc3ccc(O)cc3)(C(C)C)OC2=O)c(C(C)(C)C)cc1NS(=O)(=O)c1ccccn1` (stereo unspecified) [N-[5-tert-butyl-4-({4-hydroxy-6-[2-(4-hydroxyphenyl)ethyl]-2-oxo-6-(propan-2-yl)-5,6-dihydro-2H-pyran-3-yl}sulfanyl)-2-methylphenyl]pyridine-2-sulfonamide]: the half-maximal inhibitory concentration (IC50) came out at 2.6 nM in assay [1] (pH 6.2, 37 °C) and 2.6 nM in assay [2].

For the compound `Cc1cc(SC2C(=O)CC(CCc3ccc(O)cc3)(CC(C)C)OC2=O)c(C(C)(C)C)cc1OS(=O)(=O)Cn1ccnc1` (stereo unspecified), the IC50 in assay [2] amounted to 3.6 nM. In other words, the single-digit nanomolar range.

`Cc1cc(SC2C(=O)CC(CCc3ccccc3)(C(C)C)OC2=O)c(C(C)(C)C)cc1NS(=O)(=O)Cn1ccnc1` (stereo unspecified) returned an IC50 in assay [2] of 1.9 nM.

`Cc1cc(SC2C(=O)CC(C)(CCc3ccc(O)cc3)OC2=O)c(C(C)(C)C)cc1NS(=O)(=O)c1ccc(-c2cccs2)cc1` (stereo unspecified): the IC50 in assay [2] turned out to be 6.3 nM.

As to `Cc1cc(SC2C(=O)CC(CCc3ccccc3)(C(C)C)OC2=O)c(C(C)(C)C)cc1OS(=O)(=O)Cn1ccnc1` (stereo unspecified), in assay [2], inhibition was half-maximal at 3 nM (IC50).

For `CCNS(=O)(=O)Oc1cc(C(C)(C)C)c(SC2C(=O)CC(CCc3ccc(O)cc3)(C(C)C)OC2=O)cc1C` (stereo unspecified) [6-Alkyl-5,6-Dihydropyran-2-one 20], 4.9 nM corresponded to half-maximal inhibition in assay [2] (IC50).

In the case of `Cc1cc(SC2C(=O)CC(CCc3ccc(N)cc3)(C(C)C)OC2=O)c(C(C)(C)C)cc1OS(=O)(=O)c1cccs1` (stereo unspecified), the IC50 in assay [2] came out at 18.5 nM.

Take `CCCC1(CCc2ccc(O)cc2)CC(=O)C(Sc2cc(C)c(OS(=O)(=O)Cn3ccnc3)cc2C(C)(C)C)C(=O)O1` (stereo unspecified): the 50% inhibitory concentration (IC50) in assay [2] was determined as 2.2 nM.

`Cc1cc(SC2C(=O)CC(CCc3ccc(N)cc3)(C(C)C)OC2=O)c(C(C)(C)C)cc1OS(=O)(=O)N(C)C` (stereo unspecified) [4-({6-[2-(4-aminophenyl)ethyl]-4-hydroxy-2-oxo-6-(propan-2-yl)-5,6-dihydro-2H-pyran-3-yl}sulfanyl)-5-tert-butyl-2-methylphenyl N,N-dimethylsulfamate] yielded a half-maximal inhibitory concentration (IC50) in assay [2] of 3.9 nM.

`Cc1cc(SC2C(=O)CC(CCc3ccc(O)cc3)(C3CCCCC3)OC2=O)c(C(C)(C)C)cc1OS(=O)(=O)Cn1ccnc1` (stereo unspecified) yielded an IC50 in assay [2] of 8 nM. Against the preceding compound, the IC50 is about 2.1-fold higher.
